The target in one test is hPDE1A (Homo sapiens, UniProt P54750). Kind of test: IMAP PDE assay, selectivity table. In kind it is biochemical.
Test [1] has as its system guinea pig cardiomyocytes. Kind of test: Glucagon co-administration with PDE1 inhibitor in guinea pig cardiomyocytes (sarcomere shortening, Ca2+ transients). In kind it is cell-based. Conditions: glucagon (1 μM) plus Compound 1 (1 μM) vs glucagon alone, 37° C., pacing at 1 Hz. The procedure: Studies were carried out to test the effect of glucagon co-administration with a PDE1 inhibitor in guinea pig cardiomyocytes. Myocytes were isolated according to Liu et al., Circulation Research, 2014. A thoracotomy was performed on anesthetized guinea pigs to remove the heart. The aorta was cannulated on a Langendorf apparatus fitted with a heating jacket circulating water at 37° C., and were retrogradely perfused for 5 minutes at 8 ml/min. The perfusate was switched to a Tyrode's solution containing […] (Worthington) and protease type 14 (Sigma-Aldrich) for 7-9 minutes. The solution was switched to a modified Kraft-Bruhe (KB) buffer for 5 minutes, before being minced and filtered to yield single cells. Isolated cells were incubated in a modified KB buffer (Isenberg et al., Pflugers Arch, 1982] for an hour, before being placed in supplemented M199 ACCIT medium. (Ellingsen et al., American J Physiology, 1993) Cells were kept at room temperature, and used within 7 hours.
Changes in cell sarcomere shortening and Ca^2+ transients were measured using a customized IonOptix system previously described. (Hashimoto et al., Circulation, 2018). Briefly, cells were loaded using 1 μM Fura-2 for 15 minutes, and washed out for at least 20 minutes. Baseline recording was made in Tyrode's buffer described above, with 0.1% DMSO. […]

The target in another test is hPDE1C (Homo sapiens, UniProt Q14123). Put plainly: IMAP PDE assay, selectivity table. The test is classed as biochemical.

As a reminder, the IC50 is the midpoint of a concentration-inhibition curve.

hPDE1A, sequence (P54750 whole entry, the tested form may be a part): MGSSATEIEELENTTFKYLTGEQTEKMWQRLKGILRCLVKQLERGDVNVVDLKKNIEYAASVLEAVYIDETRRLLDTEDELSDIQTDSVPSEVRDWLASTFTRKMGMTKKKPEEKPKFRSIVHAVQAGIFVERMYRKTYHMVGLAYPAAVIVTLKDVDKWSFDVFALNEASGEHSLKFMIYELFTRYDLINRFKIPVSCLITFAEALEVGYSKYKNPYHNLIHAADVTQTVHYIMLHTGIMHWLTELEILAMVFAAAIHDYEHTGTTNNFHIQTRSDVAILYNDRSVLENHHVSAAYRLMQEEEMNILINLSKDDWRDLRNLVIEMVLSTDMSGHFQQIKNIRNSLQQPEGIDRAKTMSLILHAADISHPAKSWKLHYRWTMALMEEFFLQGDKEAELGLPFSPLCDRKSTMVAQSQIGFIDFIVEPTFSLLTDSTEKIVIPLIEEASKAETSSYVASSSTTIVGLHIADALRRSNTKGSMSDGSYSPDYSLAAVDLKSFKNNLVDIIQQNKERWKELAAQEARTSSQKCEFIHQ
hPDE1C, sequence (Q14123 whole entry): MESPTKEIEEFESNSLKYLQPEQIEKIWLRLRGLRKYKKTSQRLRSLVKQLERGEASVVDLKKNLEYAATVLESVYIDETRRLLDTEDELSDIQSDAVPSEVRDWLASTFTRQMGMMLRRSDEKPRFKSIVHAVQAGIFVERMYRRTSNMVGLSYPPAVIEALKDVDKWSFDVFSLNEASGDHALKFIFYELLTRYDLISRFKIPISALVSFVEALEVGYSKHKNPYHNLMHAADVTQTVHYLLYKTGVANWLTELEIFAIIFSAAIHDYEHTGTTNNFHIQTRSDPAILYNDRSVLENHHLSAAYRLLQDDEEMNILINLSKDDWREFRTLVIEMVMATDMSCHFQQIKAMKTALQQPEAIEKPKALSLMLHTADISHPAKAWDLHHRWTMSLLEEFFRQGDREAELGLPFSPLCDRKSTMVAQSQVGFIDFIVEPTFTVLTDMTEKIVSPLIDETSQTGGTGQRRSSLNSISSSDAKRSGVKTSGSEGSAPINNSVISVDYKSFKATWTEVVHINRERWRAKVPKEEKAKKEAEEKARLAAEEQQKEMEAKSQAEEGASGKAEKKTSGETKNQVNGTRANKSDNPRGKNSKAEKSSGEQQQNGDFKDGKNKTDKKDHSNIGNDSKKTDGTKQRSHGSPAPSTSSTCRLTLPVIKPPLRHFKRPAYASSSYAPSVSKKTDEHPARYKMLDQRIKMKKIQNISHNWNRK
From the text for hPDE1A: (§1) The generation of GMP-fluorescein from cGMP-fluorescein can be quantitated, using, for example, the IMAP (Molecular Devices, Sunnyvale, CA) immobilized-metal affinity particle reagent.
(§2) Briefly, the IMAP reagent binds with high affinity to the free 5′-phosphate that is found in GMP-fluorescein and not in cGMP-fluorescein. The resulting GMP-fluorescein-IMAP complex is large relative to cGMP-fluorescein. Small fluorophores that are bound up in a large, slowly tumbling, complex can be distinguished from unbound fluorophores, because the photons emitted as they fluoresce retain the same polarity as the photons used to excite the fluorescence.
(§3) In the phosphodiesterase assay, cGMP-fluorescein, which cannot be bound to IMAP, and therefore retains little fluorescence polarization, is converted to GMP-fluorescein, which, when bound to IMAP, yields a large increase in fluorescence polarization (Amp). Inhibition of phosphodiesterase, therefore, is detected as a decrease in Amp. […]
(§4) The reaction is incubated in dark at room temperature for 15 min. […] The plate is incubated at room temperature for 1 hour to allow IMAP binding to proceed to completion, and then placed in an Envision multimode microplate reader (PerkinElmer, Shelton, CT) to measure the fluorescence polarization (Amp).
(§5) A decrease in GMP concentration, measured as decreased Amp, is indicative of inhibition of PDE activity.
From the text for hPDE1C: as §1, §2, §3, §4, §5

Consider `CN1C(=O)c2c(nn(Cc3ccc(-c4cccc(F)n4)cc3)c2Nc2ccccc2)N2C1=N[C@@H]1CCC[C@@H]12` [Compound 1], for which the values for the IC50 on hPDE1A and against hPDE1C were 0.027 nM and 0.037 nM, respectively. Moreover, in test [1] (FIG. 1), the “change in cell sarcomere shortening” value is on record as “increased the beneficial effects of glucagon”. Further, the “peak Ca2+ transient amplitude” value in test [1] (FIG. 2) was “increased the beneficial effects of glucagon”.

(Values after patent US20240009195A1, “NOVEL USES” (INTRA-CELLULAR THERAPIES, INC., priority 2020, published 2024).)
